T/C data for 26 compounds are collected here from PubChem BioAssay AID264 (DTP/NCI, 2004).

The assay concerns nude mice, LX-1 lung xenograft intrarenal, tumor weight T/C. In words: NCI In Vivo Anticancer Drug Screen. Data for tumor model Human Lung LX-1 Xenograft (intrarenal inoculation) in NU/NU Swiss (nude) mice. The note with it: endpoint: mean tumor weight change, higher = larger tumour. In outline:
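In vivo, transplantable tumor; compound vs vehicle arms; tumor size measured; value = T/C.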
(In general: In xenograft studies the graft and the host belong to different species.)

[1] abbreviates: dose: 12.5 mg/kg/injection, schedule: Q01DX010 (sc), vehicle: saline.
[2] abbreviates: dose: 150.0 mg/kg/injection, schedule: Q04DX003 (sc), vehicle: Klucel (hydroxypropylcellulose) (HPC).
[3] abbreviates: dose: 37.5 mg/kg/injection, schedule: Q04DX003 (sc), vehicle: saline with Tween-80.
Setting [4] is: dose: 75.0 mg/kg/injection, schedule: Q04DX003 (sc), vehicle: saline with Tween-80.
Setting [5] is: dose: 150.0 mg/kg/injection, schedule: Q04DX003 (sc), vehicle: saline with Tween-80.
Setting [6] is: dose: 600.0 mg/kg/injection, schedule: Q04DX003 (sc), vehicle: saline with Tween-80.
Setting [7] is: dose: 25.0 mg/kg/injection, schedule: Q01DX010 (sc), vehicle: saline.
The mark [8] stands for this setting: dose: 300.0 mg/kg/injection, schedule: Q04DX003 (sc), vehicle: Klucel (hydroxypropylcellulose) (HPC).
[9] abbreviates: dose: 600.0 mg/kg/injection, schedule: Q04DX003 (sc), vehicle: Klucel (hydroxypropylcellulose) (HPC).
[10] abbreviates: dose: 1200.0 mg/kg/injection, schedule: Q04DX003 (sc), vehicle: Klucel (hydroxypropylcellulose) (HPC).
Setting [11] is: dose: 25.0 mg/kg/injection, schedule: Q04DX003 (sc), vehicle: saline with Tween-80.

SMILES strings stand for the structures. Values joined by “and” are separate entries in the source; they are usually repeats but may differ in a detail not shown here. Equal values may be shown once. Results filed as inconclusive are left out.

Consider `N=[N+]=CC(=O)OCC(N)C(=O)O` (stereo not given), for which, under setting [1], the T/C is 101 % of control.

`NC(=O)c1ncn(C2OC(CO)C(O)C2O)c1O` (stereo not given): under setting [2], the T/C is 99 % of control.

On to `CNC(=O)n1c(N)nc(-c2ccccc2)c1-c1ccccc1`, for which the T/C reads like this: under setting [3], 114 % of control; under setting [4], 122 % of control; under setting [5], 57 % of control.

As for `Brc1ccc(C[N+]23CN4CN(CN(C4)C2)C3)cc1`, the T/C is 91 % of control under setting [5]; 101 % of control (dose: 300.0 mg/kg/injection, schedule: Q04DX003 (sc), vehicle: saline with Tween-80); 76 % of control under setting [6].

Take `NCCc1ccc(O)c(O)c1`: the T/C runs as follows: (dose: 200.0 mg/kg/injection, schedule: Q01DX010 (sc), vehicle: saline) 113 % of control; (dose: 400.0 mg/kg/injection, schedule: Q01DX010 (sc), vehicle: saline) 92 % of control; (dose: 800.0 mg/kg/injection, schedule: Q01DX010 (sc), vehicle: saline) 52 % of control.

Regarding `COc1cccc2c1C(=O)c1c(O)c3c(c(O)c1C2=O)C[C@H](O)C[C@@H]3OC1CC(N)C(O)C(C)O1` (stereo not given in full), the T/C runs as follows: (dose: 6.25 mg/kg/injection, schedule: Q01DX010 (sc), vehicle: saline) 25 % of control; under setting [1], 336 % of control; under setting [7], 101 % of control.

For the compound `O=C(O)CSc1c(Cl)c(=O)oc2ccc(Cl)cc12`, the T/C under setting [2] is 52 % of control, the T/C under setting [8] is 70 % of control, the T/C under setting [9] was 82 % of control and the T/C under setting [10] is 165 % of control.

For the compound `c1ccc2c(NCCCCCCNc3c4ccccc4nc4ccccc34)c3ccccc3nc2c1`, the T/C (dose: 5.0 mg/kg/injection, schedule: Q01DX010 (sc), vehicle: Klucel (hydroxypropylcellulose) (HPC)) was 102 % of control.

For `Cc1nnc2ncccn12`, the T/C runs as follows: (dose: 100.0 mg/kg/injection, schedule: Q04DX003 (sc), vehicle: saline) 112 % of control; (dose: 200.0 mg/kg/injection, schedule: Q04DX003 (sc), vehicle: saline) 107 % of control.

With `C=CCNc1nc2c(s1)CCc1cc(OC)c(OC)cc1-2`, under setting [5], the T/C is 89 % of control.

With `OCCO`, the T/C (dose: 8.0 % in 0.5 ml injection vol, schedule: Q04DX003 (sc), vehicle: water) was 121 % of control and the T/C (dose: 16.0 % in 0.5 ml injection vol, schedule: Q04DX003 (sc), vehicle: water) was 108 % of control.

On to `CC(Cc1ccc(O)c(O)c1)C(C)Cc1ccc(O)c(O)c1` (stereo not given), for which the T/C reads like this: (dose: 300.0 mg/kg/injection, schedule: Q04DX003 (sc), vehicle: saline + alcohol) 107 % of control; (dose: 600.0 mg/kg/injection, schedule: Q04DX003 (sc), vehicle: saline + alcohol) 90 % of control; (dose: 1200.0 mg/kg/injection, schedule: Q04DX003 (sc), vehicle: saline + alcohol) 104 % of control; (dose: 2400.0 mg/kg/injection, schedule: Q04DX003 (sc), vehicle: saline + alcohol) 66 % of control.

For the compound `BrC1c2cccc3cccc(c23)C1Br` (stereo not given), the T/C was 155 % of control under setting [6] and 96 % of control (dose: 1200.0 mg/kg/injection, schedule: Q04DX003 (sc), vehicle: saline with Tween-80).

For `Nc1nc(=S)c2ncn(C3CC(O)C(CO)O3)c2[nH]1` (stereo not given), the T/C by setting is: (dose: 0.31 mg/kg/injection, schedule: Q01DX010 (sc), vehicle: saline with Tween-80) 108 % of control; (dose: 0.63 mg/kg/injection, schedule: Q01DX010 (sc), vehicle: saline with Tween-80) 66 % of control; (dose: 1.25 mg/kg/injection, schedule: Q01DX010 (sc), vehicle: saline with Tween-80) 85 % of control; (dose: 2.5 mg/kg/injection, schedule: Q01DX010 (sc), vehicle: saline with Tween-80) 83 % of control.

As for `CC(=O)CC(C)=O.CC(=O)CC(C)=O.O=N[O-].O=N[O-].[Co]`, the T/C under setting [4] is 114 % of control.

Regarding `COc1ccc2c(c1)CCn1c(C)c(COC(=O)NC(C)C)c(COC(=O)NC(C)C)c1-2`, the T/C was 65 % of control (dose: 37.5 mg/kg/injection, schedule: Q04DX003 (sc), vehicle: distilled water + Tween-80); 64 % of control (dose: 75.0 mg/kg/injection, schedule: Q04DX003 (sc), vehicle: distilled water + Tween-80); 55 % of control (dose: 150.0 mg/kg/injection, schedule: Q04DX003 (sc), vehicle: distilled water + Tween-80); 63 % of control (dose: 300.0 mg/kg/injection, schedule: Q04DX003 (sc), vehicle: distilled water + Tween-80).

Turning to `Nc1ccn(C2OC(CO)C(O)C2O)c(=O)n1` (stereo not given), the T/C reads like this: (dose: 31.25 mg/kg/injection, schedule: Q01DX010 (sc), vehicle: water) 73 % of control and 95 % of control; (dose: 600.0 mg/kg/injection, schedule: Q04DX003 (sc), vehicle: water) 47 % of control; (dose: 819.2 mg/kg/injection, schedule: Q04DX003 (sc), vehicle: water) 46 % of control; (dose: 1024.0 mg/kg/injection, schedule: Q04DX003 (sc), vehicle: water) 61 % of control; (dose: 1200.0 mg/kg/injection, schedule: Q04DX003 (sc), vehicle: water) 34 % of control; (dose: 1280.0 mg/kg/injection, schedule: Q04DX003 (sc), vehicle: water) 23 % of control. Further, the T/C (dose: 1600.0 mg/kg/injection, schedule: Q04DX003 (sc), vehicle: water) is 20 % of control.

With `Nc1nc(N)c2c(ccc3c2ccn3Cc2cccc([N+](=O)[O-])c2)n1`, the T/C runs as follows: under setting [3], 100 % of control; under setting [4], 69 % of control; under setting [5], 50 % of control.

Take `O=c1n(CC2CO2)c(=O)n(CC2CO2)c(=O)n1CC1CO1` (stereo not given): the T/C reads like this: under setting [1], 65 % of control; under setting [7], 56 % of control; under setting [11], 94 % of control; (dose: 50.0 mg/kg/injection, schedule: Q04DX003 (sc), vehicle: saline with Tween-80) 100 % of control.

On to `N=[N+]=CC(=O)CCC(NC(=O)C(CCC(=O)C=[N+]=N)NC(=O)CCC(N)C(=O)O)C(=O)O` (stereo not given), for which the T/C is 119 % of control (dose: 1.6 mg/kg/injection, schedule: Q04DX003 (sc), vehicle: water); 86 % of control (dose: 3.2 mg/kg/injection, schedule: Q04DX003 (sc), vehicle: water); 119 % of control (dose: 6.4 mg/kg/injection, schedule: Q04DX003 (sc), vehicle: water); 91 % of control (dose: 12.8 mg/kg/injection, schedule: Q04DX003 (sc), vehicle: water).

Regarding `CN(C)CCCNc1c2ccccc2nc2cccc([N+](=O)[O-])c12`, the T/C is 117 % of control (dose: 0.37 mg/kg/injection, schedule: Q04DX003 (sc), vehicle: saline); 100 % of control (dose: 0.75 mg/kg/injection, schedule: Q04DX003 (sc), vehicle: saline); 95 % of control (dose: 1.5 mg/kg/injection, schedule: Q04DX003 (sc), vehicle: saline).

Regarding `C[C@]12CC[C@@H]3c4ccc(O)cc4CC[C@H]3[C@@H]1CC[C@@H]2O`, the T/C is, setting by setting: under setting [8], 120 % of control; under setting [9], 101 % of control; under setting [10], 103 % of control; (dose: 2400.0 mg/kg/injection, schedule: Q04DX003 (sc), vehicle: Klucel (hydroxypropylcellulose) (HPC)) 53 % of control.

On to `C1CCC2[N-]CC3CCCCC3[N-]CC3CCCCC3[N-]CC3CCCCC3[N-]CC2C1.[Cu]` (stereo not given), for which the T/C by setting is: (dose: 6.25 mg/kg/injection, schedule: Q01DX010 (sc), vehicle: Klucel (hydroxypropylcellulose) (HPC)) 100 % of control; (dose: 12.5 mg/kg/injection, schedule: Q01DX010 (sc), vehicle: Klucel (hydroxypropylcellulose) (HPC)) 87 % of control; (dose: 25.0 mg/kg/injection, schedule: Q01DX010 (sc), vehicle: Klucel (hydroxypropylcellulose) (HPC)) 51 % of control.

As to `C[N+](C)(C)c1cc2c(nn1)Nc1ccccc1S2`, the T/C (dose: 100.0 mg/kg/injection, schedule: Q01DX010 (sc), vehicle: Klucel (hydroxypropylcellulose) (HPC)) is 89 % of control.

In the case of `Cc1nn(CCO)c(C)c1N=[N+]([O-])c1c(C)nn(CCO)c1C`, the T/C is 99 % of control under setting [2], 105 % of control under setting [8], 121 % of control under setting [9] and 103 % of control under setting [10].

As for `C[CH2][Sn]([CH2]C)([CH2]C(=O)OC)[CH2]C(=O)OC`, the T/C by setting is: (dose: 6.25 mg/kg/injection, schedule: Q04DX003 (sc), vehicle: saline with Tween-80) 97 % of control; (dose: 12.5 mg/kg/injection, schedule: Q04DX003 (sc), vehicle: saline with Tween-80) 92 % of control; under setting [11], 70 % of control.
